Test results reported in patent EP2608770B1, “INHALABLE GASEOUS DRUG CONTAINING KRYPTON FOR TREATING NEURO-INTOXICATION” (L'Air Liquide Société Anonyme pour l'Etude et …, priority 2010, dated 2012).

Tested on: U2OS
Assay: Cell death and apoptosis in U2OS cells exposed to cytotoxic agents (staurosporine, rotenone, antimycin A, menadione, mitoxantrone) under a krypton atmosphere, read by automated fluorescence microscopy
Type: cell-based
Conditions: cells kept in an atmosphere formed of krypton, measured after 6 and 16 hours of incubation
From the text: Des essais ont été réalisés pour démontrer que le krypton présente un effet protecteur cérébral de par sa capacité à protéger la cellule du phénomène de la mort cellulaire programmée ou apoptose, qui est la conséquence ultime des neuro-intoxications telles que décrites dans le syndrome d'ischémie-reperfusion, d'addictions... […]
Les cellules ont été ensuite analysées dans un automate BD Pathway Fluorescence Microscope afin de déterminer les paramètres suivants : • apoptose cellulaire définit par GFP-H2B ou DAPI-condensation chromatine mesurable), • autophagie définit par GFP-LC3 puncta, • nécrose définit par l'exsudation de HMGB1 du noyau, • aberrations mitotiques définit par GFP-H2B et Red-Centrin, • niveau de stress ER définit par GFP-G3B puncta, • cycle cellulaire définit par l'incorporation de […] dans les cellules en phase S, ainsi que l'analyse du DNA. […]

## [Kr] [krypton]
  capacités fonctionnelles et intégrité physiques des cellules: conservent leurs capacités fonctionnelles ainsi que leur intégrité physiques
Apoptosis defined by GFP-H2B or DAPI chromatin condensation
  signes d'apoptose cellulaire: diminue les signes d'apoptose cellulaire
